“Also recorded” adds a separate entry of the source. Read-outs that look alike come from different tables or passages of the source.
Assays:
[1] = tested on: healthy Chinese participants; assay type: in vivo, human
Source text: Of note, the study was not designed to identify a maximum tolerated dose. Dose escalation was to stop if a non-tolerated dose was identified. PD endpoints, including left ventricular ejection fraction (LVEF), would be measured with echocardiograms, which were reviewed by an independent cardiologist for safety assessments. The study drug would be discontinued for participants who develop left ventricular dysfunction according to pre-specified stopping rules. For additional safety monitoring, an independent, unblinded cardiologist was present at the clinical research unit from dosing through the completion of the echocardiogram on the last dosing day.
Echocardiography assessments (left ventricular fractional shortening [LVFS], left ventricular stroke volume [LVSV], left ventricular outflow tract velocity time integral [LVOT-VTI], left ventricular end-systolic volume [LVESV], left ventricular end-diastolic volume [LVEDV], left ventricular cardiac output [LVCO], and LVEF) for the SAD cohorts were collected on day 1 (baseline) and at 1.5, 4, and 24 h post-dose on day 1. For the MD cohort, the assessments were collected on day 1 (baseline) at 1.5 and 4 h post-dose on day 1, at 1.5 h post-dose on days 2, 4, and 9, and at 3 and 24 h post-dose on day 14.
Of all the echocardiography parameters, the key parameters LVEF and LVFS were classified as follows with the number of participants summarized for each dosing condition: for the LVEF category, baseline LVEF ≥60%, and post-dose LVEF <50% or <45%; change of LVEF from baseline ≤ 5%, ≤10%, or ˂15%; for the VLFS category, change of LVFS from baseline ≤ 5%, ≤10%, or ˂15%. The dose–PD response relationship between the aficamten dose and placebo group was assessed using ANOVA analysis. […] Furthermore, the relationship between PK concentration–PD response was also assessed using ANCOVA analysis of post-dose PD parameters based on changes from baseline. The model included changes from baseline in PD parameters as the dependent variables, concentration tertiles (categorical variables) as fixed effects, baseline PD parameters as covariates, and the random intercept to account for repeated measures. In addition, the heart rate (HR), systolic blood pressure (SBP), and diastolic blood pressure (DBP) were collected as a part of the vital sign assessments at pre-dose and post-dose.

[2] = tested on: healthy Western participants; settings: 2022, cited from earlier work
[3] = MD 5 mg N=9, 25.5 h (1.5 hours post-dose on Day 2)
[4] = MD 5 mg N=9, 73.5 h (1.5 hours post-dose on Day 4)
[5] = MD 5 mg N=9, 193.5 h (1.5 hours post-dose on Day 9)
[6] = MD 5 mg N=9, 315 h (3 hours post-dose on Day 14)
[7] = MD 5 mg N=9, 336 h (24 hours post-dose on Day 14)

## CCc1nc(-c2ccc3c(c2)CC[C@H]3NC(=O)c2cnn(C)c2)no1 [aficamten]
[1]; MD 5 mg N=9, 1.5 h
  LVEF Change From Baseline ≤ -5, participants: 1 (11.11%) n (%)
  LVEF Change From Baseline ≤ -10, participants: 0 (0%) n (%)
  LVEF Change From Baseline ≤ -15, participants: 0 (0%) n (%)
  LVFS Change from Baseline ≤ -5, participants: 3 (33.33%) n (%)
  LVFS Change from Baseline ≤ -10, participants: 1 (11.11%) n (%)
  LVFS Change from Baseline ≤ -15, participants: 0 (0%) n (%)
[1]; [3]
  LVEF Change From Baseline ≤ -5, participants: 4 (44.44%) n (%)
  LVEF Change From Baseline ≤ -10, participants: 0 (0%) n (%)
  LVEF Change From Baseline ≤ -15, participants: 0 (0%) n (%)
  LVFS Change from Baseline ≤ -5, participants: 4 (44.44%) n (%)
  LVFS Change from Baseline ≤ -10, participants: 0 (0%) n (%)
  LVFS Change from Baseline ≤ -15, participants: 0 (0%) n (%)
[1]; [4]
  LVEF Change From Baseline ≤ -5, participants: 3 (33.33%) n (%)
  LVEF Change From Baseline ≤ -10, participants: 0 (0%) n (%)
  LVEF Change From Baseline ≤ -15, participants: 0 (0%) n (%)
  LVFS Change from Baseline ≤ -5, participants: 5 (55.56%) n (%)
  LVFS Change from Baseline ≤ -10, participants: 1 (11.11%) n (%)
  LVFS Change from Baseline ≤ -15, participants: 0 (0%) n (%)
[1]; [5]
  LVEF Change From Baseline ≤ -5, participants: 1 (11.11%) n (%)
  LVEF Change From Baseline ≤ -10, participants: 0 (0%) n (%)
  LVEF Change From Baseline ≤ -15, participants: 0 (0%) n (%)
  LVFS Change from Baseline ≤ -5, participants: 4 (44.44%) n (%)
  LVFS Change from Baseline ≤ -10, participants: 0 (0%) n (%)
  LVFS Change from Baseline ≤ -15, participants: 0 (0%) n (%)
[1]; [6]
  LVEF Change From Baseline ≤ -5, participants: 2 (22.22%) n (%)
  LVEF Change From Baseline ≤ -10, participants: 0 (0%) n (%)
  LVEF Change From Baseline ≤ -15, participants: 0 (0%) n (%)
  LVFS Change from Baseline ≤ -5, participants: 1 (11.11%) n (%)
  LVFS Change from Baseline ≤ -10, participants: 0 (0%) n (%)
  LVFS Change from Baseline ≤ -15, participants: 0 (0%) n (%)
[1]; [7]
  LVEF Change From Baseline ≤ -5, participants: 2 (22.22%) n (%)
  LVEF Change From Baseline ≤ -10, participants: 0 (0%) n (%)
  LVEF Change From Baseline ≤ -15, participants: 0 (0%) n (%)
  LVFS Change from Baseline ≤ -5, participants: 1 (11.11%) n (%)
  LVFS Change from Baseline ≤ -10, participants: 0 (0%) n (%)
  LVFS Change from Baseline ≤ -15, participants: 0 (0%) n (%)
[1]; MD 5 mg cohort
  exposure–response analysis of change from baseline in echocardiogram parameters vs time-matched plasma concentrations: did not show a statistically significant effect
[1]; SAD 10 mg N=6, 1.5 h
  LVEF Change From Baseline ≤ -5, participants: 1 (16.67%) n (%)
  LVEF Change From Baseline ≤ -10, participants: 0 (0%) n (%)
  LVEF Change From Baseline ≤ -15, participants: 0 (0%) n (%)
  LVFS Change from Baseline ≤ -5, participants: 1 (16.67%) n (%)
  LVFS Change from Baseline ≤ -10, participants: 0 (0%) n (%)
  LVFS Change from Baseline ≤ -15, participants: 0 (0%) n (%)
[1]; SAD 10 mg N=6, 4 h
  LVEF Change From Baseline ≤ -5, participants: 1 (16.67%) n (%)
  LVEF Change From Baseline ≤ -10, participants: 0 (0%) n (%)
  LVEF Change From Baseline ≤ -15, participants: 0 (0%) n (%)
  LVFS Change from Baseline ≤ -5, participants: 0 (0%) n (%)
  LVFS Change from Baseline ≤ -10, participants: 0 (0%) n (%)
  LVFS Change from Baseline ≤ -15, participants: 0 (0%) n (%)
[1]; SAD 10 mg N=6, 24 h
  LVEF Change From Baseline ≤ -5, participants: 0 (0%) n (%)
  LVEF Change From Baseline ≤ -10, participants: 0 (0%) n (%)
  LVEF Change From Baseline ≤ -15, participants: 0 (0%) n (%)
  LVFS Change from Baseline ≤ -5, participants: 1 (16.67%) n (%)
  LVFS Change from Baseline ≤ -10, participants: 0 (0%) n (%)
  LVFS Change from Baseline ≤ -15, participants: 0 (0%) n (%)
[1]; SAD 10 mg-dose group, 1.5 h post-dose
  number of subjects with LVEF reduction of 5%–10%: one
[1]; SAD 20 mg N=6, 1.5 h
  LVEF Change From Baseline ≤ -5, participants: 3 (50%) n (%)
  LVEF Change From Baseline ≤ -10, participants: 1 (16.67%) n (%)
  LVEF Change From Baseline ≤ -15, participants: 0 (0%) n (%)
  LVFS Change from Baseline ≤ -5, participants: 3 (50%) n (%)
  LVFS Change from Baseline ≤ -10, participants: 1 (16.67%) n (%)
  LVFS Change from Baseline ≤ -15, participants: 0 (0%) n (%)
[1]; SAD 20 mg N=6, 4 h
  LVEF Change From Baseline ≤ -5, participants: 2 (33.33%) n (%)
  LVEF Change From Baseline ≤ -10, participants: 0 (0%) n (%)
  LVEF Change From Baseline ≤ -15, participants: 0 (0%) n (%)
  LVFS Change from Baseline ≤ -5, participants: 1 (16.67%) n (%)
  LVFS Change from Baseline ≤ -10, participants: 0 (0%) n (%)
  LVFS Change from Baseline ≤ -15, participants: 0 (0%) n (%)
[1]; SAD 20 mg N=6, 24 h
  LVEF Change From Baseline ≤ -5, participants: 1 (16.67%) n (%)
  LVEF Change From Baseline ≤ -10, participants: 0 (0%) n (%)
  LVEF Change From Baseline ≤ -15, participants: 0 (0%) n (%)
  LVFS Change from Baseline ≤ -5, participants: 2 (33.33%) n (%)
  LVFS Change from Baseline ≤ -10, participants: 0 (0%) n (%)
  LVFS Change from Baseline ≤ -15, participants: 0 (0%) n (%)
[1]; SAD 20 mg group, 1.5 h post-dose
  number of subjects with LVEF reduction of 10%–15%: one
[1]; SAD 20 mg-dose group, 1.5 h post-dose
  number of participants with LVEF reduction of 5%–10%: three
[1]; SAD cohorts, group 2: 37.6–56.3 ng/mL, p < 0.05
  LVFS change from baseline vs placebo group by PK concentration group: statistically significant changes from baseline
[1]; SAD cohorts, group 3: 62.5–199.0 ng/mL, p < 0.05
  LVEF change from baseline vs placebo group by PK concentration group: statistically significant changes from baseline
[1]; SAD cohorts, p < 0.05
  PK–PD relationship between plasma concentration and LVEF and LVFS: significant inverse PK–PD relationships
[1]; any dose group, ANOVA
  PD parameter changes from baseline, dose group vs placebo group: no statistically significant difference
[2]; 5 mg QD 14 days, healthy Western participants, CY 6011, ref Robertson et al., 2019, Malik et al.
  accumulation ratio (AR_AUC0-24): 4.71
[2]; 10 mg single dose, healthy Western participants, ref Malik et al.
  Cmax, mean (SD): 70.5 (69.0) ng/mL
[2]; CYP2D6-PM cohort vs non-poor metabolizers, CY 6011, ref Malik et al.
  effect of CYP2D6 poor metabolizer status on aficamten exposure: comparable; also recorded: did not affect the pharmacokinetics
[2]; SAD 10 mg, healthy Western participants, ref Malik et al.
  median tmax: 1.8 h
[2]; daily dosing, CY 6011, ref Robertson et al., 2019, Malik et al.
  time after which steady-state appeared evident: 14 days
[2]; healthy Western populations, FIH phase 1, ref Robertson et al., 2019, Malik et al.
  safety and tolerability: safe and well-tolerated

— paper PMC10482267, “Safety, tolerability, pharmacokinetics, and pharmacodynamics of single and multiple doses of aficamten in healthy Chinese participants: a randomized, double-blind, placebo-controlled, phase 1 study” (Frontiers in Pharmacology, 2023)
